Tested on: miR-34b, miR-132, miR-137, miR-193a, and miR-203 genes in oral squamous-cell carcinoma cell lines
Assay: Real-time RT-PCR of candidate miRNA gene expression after treatment with demethylating reagent
Assay type: cell-based
Excerpt: The miRNA expression levels were compared in terms of relative value based on the RNU6B expression level as an internal control. Stars represent 21 types of miRNA genes located on or around the CpG islands. […] A bar graph representing each cell line represents a comparison of expression levels in the RT7 cells and in each cell line. […] A bar graph representing each cell line indicates a comparison of expression levels in untreated cells and in treated cells. […] Asterisks (*) represent a frequency of oral squamous-cell carcinoma cell lines in which recovery of candidate miRNA expression (expression levels of more than 1.5-fold) was observed by comparing untreated cells with cells that have been treated with 10 μM 5-aza-dCyd.
In order to inspect whether or not expression of these 5 types of miRNA genes was suppressed by DNA methylation, oral squamous-cell carcinoma cell lines in which these 5 types of miRNA genes had not been expressed were treated with 1 μM and 10 μM demethylating reagents (5-aza-dCyd) for 5 days. RNA was extracted from these cell lines and expression of candidate miRNA genes was inspected via real-time RT-PCR (FIG. 1D).

Nc1ncn([C@H]2C[C@H](O)[C@@H](CO)O2)c(=O)n1 [5-aza-dCyd, 5-aza-2′-deoxycytidine]
recovery of candidate miRNA gene expression (1 μM and 10 μM for 5 days, OSCC cell lines in which the 5 miRNA genes had not been expressed): expression of these genes was found to be recovered
demethylation of CpG islands near the miRNA genes (oral squamous-cell carcinoma cells cultured in the presence of the demethylating reagent): possible to demethylate such CpG islands

— US20110076768A1, “METHOD FOR DETECTING CARCINOMA AND AGENT FOR SUPPRESSING CARCINOMA” (priority 2008, published 2011)
